Experimental data published in article PMC11106745 (ACS Chemical Biology, 2024).
“And” between values parts separate entries of the source, which are not always exact repeats. Equal values may be shown once. Read-outs that look alike come from different tables or passages of the source.

Tests used:
MacroD1 = molecular target: T1, MacroD1 (Homo sapiens, UniProt Q9BQ69); experiment: IC50 curves of binding to MacroD1 (Figure S2); details: Figure S2, fitted
T1 construct: made in house
T1 sequence (Q9BQ69 1-325): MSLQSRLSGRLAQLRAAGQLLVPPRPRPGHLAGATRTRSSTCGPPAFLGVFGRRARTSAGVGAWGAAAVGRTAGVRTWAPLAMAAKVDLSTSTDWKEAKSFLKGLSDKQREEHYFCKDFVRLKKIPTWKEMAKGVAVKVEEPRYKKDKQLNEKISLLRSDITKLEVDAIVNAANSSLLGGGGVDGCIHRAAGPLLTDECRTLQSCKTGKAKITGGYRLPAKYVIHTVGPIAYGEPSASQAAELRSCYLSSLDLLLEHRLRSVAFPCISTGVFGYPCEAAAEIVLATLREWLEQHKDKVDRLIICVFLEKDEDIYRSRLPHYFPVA

VEEV Mac [1] = molecular target: T2, VEEV Mac (Venezuelan equine encephalitis virus, UniProt P27282); experiment: biochemical; assay type: binding
SARS-CoV-2 Mac1 [2] = molecular target: T3, SARS-CoV-2 Mac1 (Severe acute respiratory syndrome coronavirus 2, UniProt P0DTD1); experiment: biochemical; assay type: binding
MERS-CoV Mac1 [3] = molecular target: T4, MERS-CoV Mac1 (Middle East respiratory syndrome-related coronavirus, UniProt K9N7C7); experiment: biochemical; assay type: binding
CHIKV Mac [4] = molecular target: T5, CHIKV Mac (Chikungunya virus, UniProt Q8JUX6); experiment: biochemical; assay type: binding
MacroD2 = molecular target: T6, MacroD2 (Homo sapiens, UniProt A1Z1Q3); experiment: IC50 curves of binding to MacroD2 (Figure S2); details: Figure S2, fitted
T6 construct: made in house
T6 sequence (A1Z1Q3 1-425): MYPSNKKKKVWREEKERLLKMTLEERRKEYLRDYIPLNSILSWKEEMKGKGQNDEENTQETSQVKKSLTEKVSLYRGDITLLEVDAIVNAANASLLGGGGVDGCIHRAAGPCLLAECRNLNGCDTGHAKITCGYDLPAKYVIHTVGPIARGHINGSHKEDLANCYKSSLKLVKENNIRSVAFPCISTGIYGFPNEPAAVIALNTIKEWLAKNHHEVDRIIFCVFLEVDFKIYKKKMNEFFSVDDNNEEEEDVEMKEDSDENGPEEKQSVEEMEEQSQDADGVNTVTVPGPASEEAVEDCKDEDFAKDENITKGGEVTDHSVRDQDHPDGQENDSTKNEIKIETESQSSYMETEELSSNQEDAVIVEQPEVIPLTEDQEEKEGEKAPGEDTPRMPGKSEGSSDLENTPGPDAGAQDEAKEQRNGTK

SARS-CoV-2 Mac1 [5] = molecular target: T3, SARS-CoV-2 Mac1; experiment: biochemical; assay type: binding; remark: listed apart in the source
MERS-CoV Mac1 [6] = molecular target: T4, MERS-CoV Mac1; experiment: biochemical; assay type: binding; remark: listed apart in the source
CHIKV Mac [7] = molecular target: T5, CHIKV Mac; experiment: biochemical; assay type: binding; remark: listed apart in the source
VEEV Mac [8] = molecular target: T2, VEEV Mac; experiment: biochemical; assay type: binding; remark: listed apart in the source
SARS-CoV-2 Mac1 [9] = molecular target: T3, SARS-CoV-2 Mac1; details: cited from earlier work

T2 sequence (P27282 1330-1489 limits assumed): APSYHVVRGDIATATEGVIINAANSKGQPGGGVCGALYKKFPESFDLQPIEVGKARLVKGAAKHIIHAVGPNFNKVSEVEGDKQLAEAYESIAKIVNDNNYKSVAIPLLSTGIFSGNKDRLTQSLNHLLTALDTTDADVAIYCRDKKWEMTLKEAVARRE
T5 sequence (Q8JUX6 1334-1493 limits assumed): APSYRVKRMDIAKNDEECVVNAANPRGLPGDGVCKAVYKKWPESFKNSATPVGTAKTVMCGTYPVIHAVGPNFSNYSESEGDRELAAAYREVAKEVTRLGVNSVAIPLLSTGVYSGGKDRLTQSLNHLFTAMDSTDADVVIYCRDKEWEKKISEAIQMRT
T4 sequence (K9N7C7 1110-1276 limits assumed): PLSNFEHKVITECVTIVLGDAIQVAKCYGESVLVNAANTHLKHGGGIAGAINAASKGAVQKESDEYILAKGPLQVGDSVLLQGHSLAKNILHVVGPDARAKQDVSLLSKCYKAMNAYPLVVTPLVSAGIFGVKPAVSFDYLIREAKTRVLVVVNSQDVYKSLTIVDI

## N#CC1(c2ccc3c(N)ncnn23)OC(COP(=O)(O)OP(=O)(O)OCC2OC(O)C(O)C2O)C(O)C1O (stereo not shown) [NDPr]
MacroD1
  IC50: > 10000 nM
VEEV Mac [1]
  IC50: 510 nM
SARS-CoV-2 Mac1 [2]
  IC50: 800 nM and 170 nM and 290 nM
MERS-CoV Mac1 [3]
  IC50: 2900 nM
CHIKV Mac [4]
  IC50: 920 nM
MacroD2
  IC50: > 10000 nM

## Nc1ncnc2c1ncn2[C@@H]1O[C@H](COP(=O)(O)OP(=O)(O)OC[C@H]2O[C@H](Oc3ccccc3)[C@H](O)[C@@H]2O)[C@@H](O)[C@H]1O [Ph-ADPr]
VEEV Mac [1]
  IC50: 7300 nM
SARS-CoV-2 Mac1 [2]
  IC50: 1900 nM and 730 nM and 1500 nM
MERS-CoV Mac1 [3]
  IC50: 1800 nM
CHIKV Mac [4]
  IC50: 126000 nM

## N#C[C@@]1(c2ccc3c(N)ncnn23)O[C@H](COP(=O)(O)OP(=O)(O)OC[C@H]2O[C@H](Oc3ccccc3)[C@H](O)[C@@H]2O)[C@@H](O)[C@H]1O [Ph-NDPr]
VEEV Mac [1]
  IC50: 220 nM
SARS-CoV-2 Mac1 [2]
  fold better IC50 than ADPr: 6000 fold
  fold better IC50 than NDPr: 100 fold
  fold better IC50 than Ph-ADPr: 500 fold
MERS-CoV Mac1 [3]
  IC50: 460 nM
CHIKV Mac [4]
  IC50: 9300 nM

## CN(C)c1ccc2c(c1)Oc1cc(N(C)C)ccc1C21OC(=O)c2cc(C(=O)NCCCCCCNC(=O)CCc3cn([C@H]4O[C@H](COP(=O)(O)OP(=O)(O)OC[C@H]5O[C@@H](n6cnc7c(N)ncnc76)[C@H](O)[C@@H]5O)[C@@H](O)[C@H]4O)nn3)ccc21 [TAMRA-ADPr, reference compound]
SARS-CoV-2 Mac1 [5]; Kd
  Kd: 2100 nM
MERS-CoV Mac1 [6]
  Kd: 830 nM
CHIKV Mac [7]
  Kd: 7200 nM
VEEV Mac [8]
  Kd: 1700 nM

## CN(C)c1ccc2c(c1)Oc1cc(N(C)C)ccc1C21OC(=O)c2cc(C(=O)NCCCCCCNC(=O)CCc3cn([C@H]4O[C@H](COP(=O)(O)OP(=O)(O)OC[C@H]5O[C@@](C#N)(c6ccc7c(N)ncnn67)[C@H](O)[C@@H]5O)[C@@H](O)[C@H]4O)nn3)ccc21 [TAMRA-NDPr]
SARS-CoV-2 Mac1 [5]
  fold more potent than TAMRA-ADPr: over 100 fold
SARS-CoV-2 Mac1 [5]; Kd
  Kd: 15 nM
MERS-CoV Mac1 [6]
  Kd: 130 nM
CHIKV Mac [7]
  fold affinity improvement over TAMRA-ADPr: more than 30 fold
  Kd: 208 nM and 210 nM
VEEV Mac [8]
  Kd: 39 nM

## CN(C)c1ccc2c(c1)Oc1cc(N(C)C)ccc1C21OC(=O)c2cc(C(=O)NCCCCCCNC(=O)CCc3cn(Cc4ccc(O[C@H]5O[C@H](COP(=O)(O)OP(=O)(O)OC[C@H]6O[C@@](C#N)(c7ccc8c(N)ncnn78)[C@H](O)[C@@H]6O)[C@@H](O)[C@H]5O)cc4)nn3)ccc21 [TAMRA-Ph-NDPr]
SARS-CoV-2 Mac1 [5]
  fold more potent than TAMRA-ADPr: over 100 fold
SARS-CoV-2 Mac1 [5]; Calculated Kd
  Kd: 2.3 nM
SARS-CoV-2 Mac1 [5]; Kd
  Kd: 5.3 nM
MERS-CoV Mac1 [6]
  Kd: 11 nM
CHIKV Mac [7]
  Kd: 810 nM
VEEV Mac [8]
  Kd: 10 nM

## Nc1ncnc2c1ncn2C1OC(COP(=O)(O)OP(=O)(O)OCC2OC(Oc3ccc4c(C(F)(F)F)cc(=O)oc4c3)C(O)C2O)C(O)C1O (stereo not shown) [TFMU-ADPr]
SARS-CoV-2 Mac1 [9]
  IC50: 590 nM
  fold more potent than ADPr: > 20 fold
